Holding throughout (test): inhibition of tumour cell growth, NCI panel, 48 h
In test [1] the test system is UACC-62 melanoma.
Test [2] deals with SK-MEL-2 melanoma.
In test [3] the test system is SN12C renal.
The subject of test [4] is LOX IMVI melanoma.
In test [5] the test system is SF-268 CNS.
The subject of test [6] is UACC-257 melanoma.
Test [7] has as its system RPMI-8226 leukemia.
Test [8] deals with NCI-H226 lung.
Test [9] relates to SK-MEL-5 melanoma.
Test [10] deals with MDA-MB-231 breast.
Test [11] has as its system RXF 393 renal.
For test [12], the system named is HCT-116 colon.
In test [13] the test system is 786-0 renal.
Test [14] relates to SNB-75 CNS.
Test [15] deals with SK-OV-3 ovarian.
The subject of test [16] is UO-31 renal.
The subject of test [17] is EKVX NSCLC.

From PubChem BioAssay (NCI) come the findings set out here.

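Dose response: 5 concentrations. Exposure: 48 h. Format: 96-well plates. Endpoint: linear interpolation; highest concentration if not reached. The concentration for full growth arrest is given as TGI.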

With `CSc1ccc2c(cc1=O)[C@@H](NC(C)=O)CCc1cc(O)c(O)c(O)c1-2`, the TGI in test [1] was over 100 µM; in test [2], over 100 µM; in test [3], over 100 µM; in [4], over 100 µM; in test [5], 38.6 µM; in test [6], over 100 µM. In addition, the TGI is over 100 µM in test [7]; 33.4 µM in test [8]; over 100 µM in test [9]; 72.2 µM in [10]; over 100 µM in [11]; over 100 µM in test [12]. Further, the TGI in test [13] is 32.4 µM; in test [14] it was 53 µM; in [15], over 100 µM; in test [16], 42.8 µM; in test [17] it was over 100 µM.
For `O=C(c1ccccc1)c1ccc(C(c2c(O)c3ccccc3oc2=O)c2c(O)c3ccccc3oc2=O)cc1`, the TGI in test [1] is 39.5 µM; in [2], over 71.3 µM; in test [3], over 77.2 µM; in test [4], over 100 µM; in [5], 64.7 µM; in [6], 49.5 µM. For the same compound, the TGI in test [7] was 60.9 µM; in [8], 55 µM; in test [9] it was over 68.5 µM; in test [10], over 71.4 µM; in test [11] it was over 69.2 µM; in [12] it was over 80.2 µM. For the same compound, the TGI is 48.9 µM in test [13]; 62.4 µM in test [14]; 38.4 µM in [15]; 33 µM in test [16]; 72.3 µM in test [17].
As to `CC/C(=N\NC(=O)c1cccnc1)c1ccc2c(c1)OCCO2`, the TGI in [1], in [2], in test [3], in test [4], in test [5] and in test [7] was over 100 µM in each case. For the same compound, the TGI in test [8], in [9], in [10], in test [11], in test [12] and in test [13] was over 100 µM each time. Besides, the TGI in test [14], in test [15], in [16] and in test [17] was over 100 µM in each case.
Regarding `Brc1cccc(/C=C/CN2CCN(CCOC(c3ccccc3)c3ccccc3)CC2)c1`, the TGI in test [1] came to 31.8 µM; in test [2], 33.6 µM; in [3], 32.3 µM; in [4], 27.6 µM; in test [5], 39.6 µM; in test [6] it was 33.4 µM. Besides, the TGI came out at 19.4 µM in test [7]; 38.2 µM in test [8]; 33.6 µM in test [9]; 29.1 µM in test [10]; 24.6 µM in test [11]; 28.9 µM in [12]. The TGI turned out to be 31.7 µM in test [13]; 20.2 µM in [14]; 34.9 µM in test [15]; 27.7 µM in test [16]; 40.8 µM in test [17].
Turning to `CCN1CC2=C(N=c3s/c(=C\c4ccc(Cl)cc4)c(=O)n3C2c2ccc(Cl)cc2)/C(=C/c2ccc(Cl)cc2)C1` (stereo not given), the TGI in [1] is over 100 µM; in [2], over 100 µM; in [4], over 100 µM; in test [5], 80.6 µM; in test [6], over 100 µM; in test [7], over 100 µM. Besides, the TGI in test [8] is over 100 µM; in test [9], over 100 µM; in test [10], over 100 µM; in test [11], 15.4 µM; in test [12], over 100 µM; in [13], 55.2 µM. Further, the TGI in [14] was 9.74 µM; in test [15] it was over 100 µM; in test [16], over 100 µM; in [17] it was over 100 µM.
Regarding `CN(C1=NCCO1)c1cccc2ccccc12`, the TGI in test [1], in test [2], in [3], in test [4], in test [5] and in test [7] was over 10 µM throughout. Also, the TGI in [8], in test [9], in test [10], in [11], in test [12] and in test [14] was over 10 µM in each case. The TGI in test [15], in test [16] and in test [17] was over 10 µM in each case.
For `NCc1ccc(-c2ccc(-c3ccc(-c4ccc(CN)s4)s3)s2)s1`, the TGI in [1], in test [2], in [3], in test [4], in test [6] and in [7] was over 100 µM each time. Moreover, the TGI in test [8], in [9], in test [10], in test [11], in test [12] and in test [13] was over 100 µM throughout. Further, the TGI in test [14], in test [15], in test [16] and in [17] was over 100 µM each time.
For `Cc1ccc(-c2c(C#N)c(-c3ccc(Cl)cc3)c(C#N)c(=O)n2NS(=O)(=O)c2ccccc2)cc1`, the TGI in test [1], in test [2], in test [3], in [4], in [5] and in [6] was over 100 µM throughout. Further, the TGI is 51.6 µM in test [7]; over 100 µM in test [8]; over 100 µM in test [9]; over 100 µM in [10]; over 100 µM in test [11]; over 100 µM in [12]. Moreover, the TGI in test [13], in [14], in test [15] and in test [17] was over 100 µM each time.
